Assay [1] has as its target T1, FLAG-KDM5C (Homo sapiens, UniProt P41229).
T1 construct: Full-length FLAG-KDM5B, FLAG-KDM5C, and His-FLAG-KDM6A production was detailed previously; FLAG (N); made in house
The assay is described as follows: AlphaScreen KDM5C demethylation assay. In kind it is biochemical. As for the experimental part: (§1) Histone demethylase assays were performed as described previously, with the exception of all enzyme reactions containing 125 μM α-KG. Enzymes were used at the following approximate concentrations in validation experiments, chosen based on their activity in AlphaScreen assays: 19 nM FLAG-KDM5A, 15 nM FLAG-KDM5B, 6 nM FLAG-KDM5C, 29 nM His-FLAG-KDM6A, and 16 nM FLAG-KDM6B. 24 nM FLAG-KDM5A was used for Km determination experiments. Reactions were carried out for 1 hour, or were stopped by addition of 30 mM EDTA every 5 minutes for determining enzyme kinetics. Km values were calculated using the Michaelis-Menten non-linear regression analysis on GraphPad Prism 6.0 software. The concentration of DMSO in demethylation reactions was 0.05%. For reactions with catalase, catalase (Sigma C30) or an equal volume of dilution buffer was added to the peptide-containing buffer before addition of the demethylase. The final concentration of catalase in the reactions was 0.01 mg/ml.
(§2) The AlphaScreen general IgG (protein A) detection kit from PerkinElmer Life Sciences was used as described previously. The luminescence emission was recorded at 570 nm using the AlphaScreen optic module on a Pherastar (BMG Labtech) or Envision (PerkinElmer Life Sciences) microplate reader.

The target of assay [2] is T2, FLAG-KDM6B (1043-1682) (JMJD3) (Homo sapiens, UniProt O15054).
T2 construct: FLAG-KDM6B (1043-1682) was purchased from BPS Bioscience (50115); FLAG (N); purchased BPS Bioscience 50115
T2 sequence (O15054 1043-1682 isoform O15054-1): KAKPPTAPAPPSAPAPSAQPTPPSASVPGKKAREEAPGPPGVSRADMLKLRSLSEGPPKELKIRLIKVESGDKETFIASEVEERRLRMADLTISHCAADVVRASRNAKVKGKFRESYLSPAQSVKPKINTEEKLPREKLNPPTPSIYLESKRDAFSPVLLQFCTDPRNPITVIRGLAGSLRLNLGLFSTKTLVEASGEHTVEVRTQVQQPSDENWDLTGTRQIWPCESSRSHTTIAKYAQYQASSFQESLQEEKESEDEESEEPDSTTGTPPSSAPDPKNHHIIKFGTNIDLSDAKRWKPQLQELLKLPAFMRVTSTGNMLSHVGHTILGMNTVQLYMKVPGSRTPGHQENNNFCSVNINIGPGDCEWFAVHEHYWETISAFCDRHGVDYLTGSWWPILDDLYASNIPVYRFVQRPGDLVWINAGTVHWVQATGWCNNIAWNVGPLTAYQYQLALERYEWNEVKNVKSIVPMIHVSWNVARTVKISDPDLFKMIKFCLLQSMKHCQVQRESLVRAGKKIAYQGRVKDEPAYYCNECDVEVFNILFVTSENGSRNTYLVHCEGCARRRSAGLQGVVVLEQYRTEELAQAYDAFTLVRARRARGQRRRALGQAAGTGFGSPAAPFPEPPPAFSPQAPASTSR
The assay can be described thus: AlphaScreen KDM6B demethylation assay. The assay is classed as biochemical. As to the method:
as §1, §2

For assay [3], the system named is MDA-MB-231 cells. The assay is described as follows: WST-1 proliferation assay, MDA-MB-231. The assay is classed as cell-based, human. Particulars: MDA-MB-231, 5 days of treatment. As to the method:
WST-1 reagent from Roche Applied Sciences (11644807001) was used to measure cell number before drug addition and after 3 or 5 days of growth as described previously. Cells were seeded in 96-well plates at the following number of cells per well: HeLa (2000), MCF7 (2000), ZR-75-1 (1000), MCF10A (1000), MDA-MB-231(5000). DMSO was used at 0.1%. Relative absorbance was calculated by subtracting the average background (media only) signal, dividing by the average signal on day 0, and then dividing by the average day 5/day 0 ratio for the DMSO controls. Significance was calculated by unpaired, two-tailed student's t-test using GraphPad Prism 6.0 software.

Assay [4] relates to HeLa cells. The assay is described as follows: Colony formation assay, HeLa. In kind it is cell-based, human. The note with it: two-week treatment, 50 or 100 μM. As for the experimental part: (§3) Cells were seeded in 6-well plates at low density: HeLa, MCF7, BT474, and PC9 cells at 1000, 2000, 2500, and 2000 cells/well respectively. Media containing the prescribed drugs or 0.1% DMSO was replaced every 3 days. Trastuzumab was used at 5 μg/ml. Gefitinib was used at 2 μM. YUKA1 was used at 50 or 100 μM. Doxycycline was used at 1 μg/ml for 3 days. After 7–42 days depending on the rate of cell growth, cells were fixed in 4% para-formaldehyde in phosphate-buffered saline for 10 minutes rocking at room temperature. They were incubated in 0.05% crystal violet in double-distilled water for 30 minutes rocking at room temperature, washed with water, and dried 24 hours before photographing. ColonyArea, a plugin for ImageJ software, was used for quantification. Unpaired, two-tailed student's t-test calculated using GraphPad Prism 6.0 software was used to determine significance.

Assay [5] deals with PC9 cells. The assay can be described thus: Colony formation assay, PC9 (gefitinib tolerance). In kind it is cell-based, human. As for the experimental part: as §3
Assay [6] relates to BT474 cells. The assay can be described thus: Colony formation assay, BT474 (trastuzumab tolerance). The assay is classed as cell-based, human. As for the experimental part:
as §3

Structures are written as SMILES.

T1 sequence (P41229 whole entry): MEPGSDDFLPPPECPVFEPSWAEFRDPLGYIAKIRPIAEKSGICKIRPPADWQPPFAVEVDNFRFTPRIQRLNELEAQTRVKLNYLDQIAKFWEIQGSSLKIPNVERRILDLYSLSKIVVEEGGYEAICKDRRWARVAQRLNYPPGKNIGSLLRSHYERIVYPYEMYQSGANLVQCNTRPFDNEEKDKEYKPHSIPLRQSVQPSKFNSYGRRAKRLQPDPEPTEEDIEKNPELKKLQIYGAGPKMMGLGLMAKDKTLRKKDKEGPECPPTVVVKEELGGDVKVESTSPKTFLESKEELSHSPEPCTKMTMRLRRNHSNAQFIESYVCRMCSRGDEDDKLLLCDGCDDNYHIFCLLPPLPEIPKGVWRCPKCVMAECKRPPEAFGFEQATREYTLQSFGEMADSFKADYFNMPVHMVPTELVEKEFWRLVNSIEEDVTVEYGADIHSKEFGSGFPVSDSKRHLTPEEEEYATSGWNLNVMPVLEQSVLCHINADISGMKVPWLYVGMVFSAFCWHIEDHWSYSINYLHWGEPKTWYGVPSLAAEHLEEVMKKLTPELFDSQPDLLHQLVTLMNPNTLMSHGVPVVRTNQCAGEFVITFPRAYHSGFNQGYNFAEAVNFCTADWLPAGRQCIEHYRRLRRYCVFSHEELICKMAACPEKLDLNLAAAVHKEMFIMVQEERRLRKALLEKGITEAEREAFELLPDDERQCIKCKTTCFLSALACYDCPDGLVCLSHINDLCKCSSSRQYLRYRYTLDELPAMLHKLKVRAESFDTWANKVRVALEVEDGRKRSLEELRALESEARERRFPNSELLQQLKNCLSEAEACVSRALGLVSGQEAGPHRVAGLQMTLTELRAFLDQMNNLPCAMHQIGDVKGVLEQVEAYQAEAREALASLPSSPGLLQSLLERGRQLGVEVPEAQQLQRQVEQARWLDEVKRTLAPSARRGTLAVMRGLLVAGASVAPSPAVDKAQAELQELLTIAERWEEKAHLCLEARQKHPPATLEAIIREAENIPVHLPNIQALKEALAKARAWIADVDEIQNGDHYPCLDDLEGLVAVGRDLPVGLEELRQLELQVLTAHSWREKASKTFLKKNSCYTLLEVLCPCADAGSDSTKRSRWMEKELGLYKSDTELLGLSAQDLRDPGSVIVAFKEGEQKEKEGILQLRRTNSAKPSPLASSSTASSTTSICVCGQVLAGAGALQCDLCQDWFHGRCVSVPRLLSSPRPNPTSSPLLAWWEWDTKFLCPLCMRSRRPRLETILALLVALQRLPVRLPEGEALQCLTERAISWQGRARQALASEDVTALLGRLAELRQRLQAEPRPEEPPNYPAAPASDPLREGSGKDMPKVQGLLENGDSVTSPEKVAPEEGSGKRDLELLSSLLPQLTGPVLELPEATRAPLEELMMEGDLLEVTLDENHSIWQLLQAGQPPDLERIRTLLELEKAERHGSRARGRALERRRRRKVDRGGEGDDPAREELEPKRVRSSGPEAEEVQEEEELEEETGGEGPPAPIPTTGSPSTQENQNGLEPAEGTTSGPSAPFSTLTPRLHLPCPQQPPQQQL

With `C=CCOc1c(CNn2cnnc2S)cccc1OC` [YUKA1, 4-([2-(allyloxy)-3-methoxybenzyl]amino)-4H-1,2,4-triazole-3-thiol], in assay [1], the “fold less active against KDM5C (than KDM5A)” value is on record as ~ 3 fold. In addition, the IC50 in assay [1] (AlphaScreen) was 7.12 µM; in assay [2], greater than 50 µM. For the same molecule, in assay [3], the “decrease in cell proliferation” value is given as 10–15%. In assay [4], the “number of colonies formed compared to DMSO” value is “significantly reduced”. In addition, the “cell growth, compound alone” value in assay [5] (PC9, 7 days) was “not significantly affected”; in assay [6] (BT474, 35 days), “not changed”. The “colony formation during long-term gefitinib treatment” value in assay [5] (PC9, plus 2 μM gefitinib, 35 days) was “fewer YUKA1-treated cells formed colonies”. The “emergence of colonies under trastuzumab” value in assay [6] (BT474, plus 5 μg/ml trastuzumab, 42 days) is on record as “significantly less”.

Source of the values: article PMC5129982, “Screen-identified selective inhibitor of lysine demethylase 5A blocks cancer cell growth and drug resistance” (Oncotarget, 2016).
